Where two headings read alike, the source gives them in different places.
Key:
[1] = test system: MPro^WT (SARS-CoV-2 main protease, mature dimer); conditions: ITC, cited from earlier work; for Kd: read-out: Kd = Ki
[2] = biological target: MPro^C145A (Severe acute respiratory syndrome coronavirus 2, UniProt P0DTC1, C3408A); type: binding, SARS-CoV-2
[3] = biological target: T1, MPro^1-199(C145A) (Severe acute respiratory syndrome coronavirus 2, UniProt P0DTC1, C3408A); set-up: species or system SARS-CoV-2
[4] = biological target: T1, MPro^1-199(C145A); type: binding, SARS-CoV-2
[5] = test system: MPro^WT (SARS-CoV-2 main protease, mature dimer); type: binding

Compound	N ([1]; GC373)	ΔG ([1]; GC373) [kcal/mol]	ΔH ([1]; GC373) [kcal/mol]	ΔS ([1]; GC373) [cal/mol/K]	Kd ([1]; GC373) [nM]	Kd = Ki [2]	N ([1]; NMV)	ΔG ([1]; NMV)	ΔH ([1]; NMV)	ΔS ([1]; NMV) [cal/mol/K]	Kd ([1]; NMV) [nM]	N [2]	ΔH [2]	ΔS [2] [cal/mol/K]	Kdimer.app [3] [µM]	dimer formation in SV-AUC [3]	protein-inhibitor adduct in mass spectra [4]	increase in binding affinity by nitrile warhead reacting with C145 [5]
CC(C)C[C@H](NC(=O)OCc1ccccc1)C(=O)N[C@H](C=O)C[C@@H]1CCNC1=O [GC373]	0.99 ± 0.01	-9.4	-6.7 ± 0.1	9.1	150 ± 30	no response	–	–	–	–	–	–	–	–	–	–	–	–
CC(C)(C)[C@H](NC(=O)C(F)(F)F)C(=O)N1C[C@H]2[C@@H]([C@H]1C(=O)N[C@H](C#N)C[C@@H]1CCNC1=O)C2(C)C [NMV, nirmatrelvir]	–	–	–	–	–	–	0.99 ± 0.003	–11.2 kcal/mol	–10.75 ± 0.7 kcal/mol	1.57	7 ± 3	0.96 ± 0.04	–3.89 ± 0.2 kcal/mol	12.6	>200	no faster sedimenting species other than a monomer was observed	absence of the imidate thioester adduct	~ 400 times

Reference: PMC9481597 (Communications Biology, 2022)
